The values below come from patent US9115169B2, “Method of treating tumors” (Lytix Biopharma AS, priority 2000, dated 2015).

Test [1] deals with MRSA ATCC 33591.
Protocol: (§1) All strains were stored at −70° C. […] All assays were performed in duplicate.
The test system of test [2] is MRSE ATCC 27626.
Protocol: as §1
Test [3] deals with Escherichia coli ATCC 25922. The following applies: ATCC 25922.
In test [4] the test system is Staphylococcus aureus ATCC 25923. The following applies: ATCC 25923.
For test [5] the test system is unchanged. The following applies: ATCC 25923. The source holds these as a separate data set.
The test system of test [6] is Escherichia coli ATCC 25922. The following applies: ATCC 25922. This is another data set of the same source.
The test system of test [7] is MRSE ATCC 27626. The following applies: ATCC 27626.
Protocol: as §1
The test system of test [8] is MRSA ATCC 33591. The following applies: ATCC 33591.
Protocol: as §1

Converted amounts (≈) assume the structure as drawn. Where a SMILES comes first, the peptide text is derived from it. [ ]: non-standard residue; d: D form. The star is where a group is joined. OBn = c1ccc(CO*)cc1

Protocol for P. aeruginosa: as §1

As to `COC(=O)[C@H](CCCNC(=N)N)NC(=O)[C@H](Cc1c[nH]c2ccccc12)NC(=O)[C@H](Cc1c[nH]c2ccccc12)NC(=O)[C@@H](N)CCCNC(=N)N` [RWWR-OMe, H-L-Arg-L-Trp-L-Trp-L-Arg-OMe] (H-RWWR-OMe), the “MBC MRSA” value with MRSA ATCC 33591 [1] was 100 to 200 µg/mL. The “MBC MRSE” value against MRSE ATCC 27626 [2] is 20 (20) μg/ml. Further, the “MBC E. coli” value in [3] is >200 (>200) μg/ml. In addition, in test [4], the “MBC S. aureus” value was 100 to 200 µg/mL. The “MIC S. aureus” value in [5] came out at 75 µg/mL (≈ 105 µM).

Consider `N=C(N)NCCC[C@H](N)C(=O)N[C@@H](Cc1c[nH]c2ccccc12)C(=O)N[C@H](CCCNC(=N)N)C(=O)N[C@H](Cc1c[nH]c2ccccc12)C(=O)OCc1ccccc1` [RWrw-OBzl, H-L-Arg-L-Trp-D-Arg-D-Trp-OBzl] (H-RW[dR][dW]-OBn), for which the “MBC MRSA” value against MRSA ATCC 33591 [1] was 5 µg/mL (≈ 6.31 µM). Moreover, the “MBC MRSE” value with MRSE ATCC 27626 [2] was 2.5 (2.5) μg/ml. Besides, the “MIC E. coli” value in test [6] was 75 µg/mL (≈ 94.6 µM). Also, the “MBC E. coli” value in test [3] is 75 to 100 µg/mL. Moreover, the “MBC S. aureus” value in test [4] is recorded as 5 (5) μg/ml. The “MIC MRSE” value with MRSE ATCC 27626 [7] is 2.5 (2.5) μg/ml. Also, in the test on MRSA ATCC 33591 [8], the “MIC MRSA” value lay in the range of 2.5 to 5 µg/mL. In addition, the “MIC S. aureus” value in test [5] is given as 5 (5) μg/ml.

In the case of `N=C(N)NCCC[C@H](NC(=O)[C@@H](N)Cc1c[nH]c2ccccc12)C(=O)OCc1ccccc1` [WR-OBzl] (H-Trp-Arg-OBn; N-terminus assumed), the “MIC P. aerug.” value against P. aeruginosa is more than 300.0 µg/mL. Moreover, the “MIC MRSE” value with MRSE ATCC 27626 [7] stood at 50.0 µg/mL (≈ 111 µM). Also, the “MIC MRSA” value against MRSA ATCC 33591 [8] came out at 37.5 µg/mL (≈ 83.2 µM).

As to `COC(=O)[C@H](CCCNC(=N)N)NC(=O)[C@@H](N)Cc1c[nH]c2ccccc12` [WR-OMe, H-L-Trp-L-Arg-OMe] (H-Trp-Arg-OMe), the “MBC MRSA” value in the test on MRSA ATCC 33591 [1] is >200 (>200) μg/ml. Also, the “MBC MRSE” value against MRSE ATCC 27626 [2] is given as >200 (>200) μg/ml. Moreover, the “MBC E. coli” value in [3] was >200 (>200) μg/ml. Further, the “MBC S. aureus” value in test [4] is on record as >200 (>200) μg/ml.

For the molecule `N=C(N)NCCC[C@H](NC(=O)[C@@H](N)Cc1c[nH]c2ccccc12)C(=O)N[C@@H](Cc1c[nH]c2ccccc12)C(=O)OCc1ccccc1` [WRW OBz] (H-Trp-Arg-Trp-OBn), in the test with MRSA ATCC 33591 [1], the “MBC MRSA” value was 10 µg/mL (≈ 15.7 µM). Also, the “MBC MRSE” value in the test with MRSE ATCC 27626 [2] was 5 (5) μg/ml. Also, the “MIC E. coli” value in test [6] was 75 µg/mL (≈ 118 µM). Besides, the “MBC E. coli” value in test [3] amounted to 200 µg/mL (≈ 314 µM). In test [4], the “MBC S. aureus” value is 5 (5) μg/ml. Besides, the “MIC MRSE” value with MRSE ATCC 27626 [7] is reported as 5 (5) μg/ml. Further, in the test on MRSA ATCC 33591 [8], the “MIC MRSA” value is 5 µg/mL (≈ 7.85 µM). For the same molecule, in [5], the “MIC S. aureus” value is given as 5 (5) μg/ml.

Turning to `COC(=O)[C@H](CCCNC(=N)N)NC(=O)[C@H](Cc1c[nH]c2ccccc12)NC(=O)[C@@H](N)Cc1c[nH]c2ccccc12` [WWR-OMe, H-L-Trp-L-Trp-L-Arg-OMe] (H-Trp-Trp-Arg-OMe), the “MBC MRSA” value with MRSA ATCC 33591 [1] is listed as >200 (>200) μg/ml. For the same molecule, the “MBC MRSE” value against MRSE ATCC 27626 [2] is on record as >200 (>200) μg/ml. In addition, the “MBC E. coli” value in test [3] is >200 (>200) μg/ml. In addition, in test [4], the “MBC S. aureus” value was >200 (>200) μg/ml.

Regarding `N=C(N)NCCC[C@@H](N)C(=O)N[C@@H](Cc1c[nH]c2ccccc12)C(=O)OCc1ccccc1` [rW-Obzl] (H-[dR]-Trp-OBn; N-terminus assumed), the “MIC E. coli” value in [6] was more than 300 µg/mL. Also, the “MIC MRSE” value in the test on MRSE ATCC 27626 [7] amounted to 25 µg/mL (≈ 55.5 µM). Besides, the “MIC MRSA” value in the test on MRSA ATCC 33591 [8] is 50 µg/mL (≈ 111 µM). Besides, the “MIC S. aureus” value in [5] amounted to 37.5 µg/mL (≈ 83.2 µM).

For `N=C(N)NCCC[C@@H](N)C(=O)N[C@H](Cc1c[nH]c2ccccc12)C(=O)OCc1ccccc1` [rw OBz] (H-[dR]-[dW]-OBn), in the test on MRSA ATCC 33591 [1], the “MBC MRSA” value came to 75 µg/mL (≈ 166 µM). Further, the “MBC MRSE” value in the test with MRSE ATCC 27626 [2] stood at 25 µg/mL (≈ 55.5 µM). In addition, in test [6], the “MIC E. coli” value is >200 (>200) μg/ml. The “MBC E. coli” value in [3] is >200 (>200) μg/ml. In test [4], the “MBC S. aureus” value is 75 µg/mL (≈ 166 µM). In addition, the “MIC MRSE” value against MRSE ATCC 27626 [7] stood at 20 µg/mL (≈ 44.4 µM). The “MIC MRSA” value against MRSA ATCC 33591 [8] was 50 µg/mL (≈ 111 µM). Further, the “MIC S. aureus” value in test [5] is 50 µg/mL (≈ 111 µM).

For the molecule `N=C(N)NCCC[C@H](NC(=O)[C@H](N)Cc1c[nH]c2ccccc12)C(=O)N[C@@H](Cc1c[nH]c2ccccc12)C(=O)OCc1ccccc1` [wRW OBz] (H-[dW]-Arg-Trp-OBn), in the test on MRSA ATCC 33591 [1], the “MBC MRSA” value is on record as 20 (20) μg/ml. For the same molecule, the “MBC MRSE” value with MRSE ATCC 27626 [2] is 10 (10) μg/ml. Also, in [6], the “MIC E. coli” value came to 75 µg/mL (≈ 118 µM). Besides, in test [3], the “MBC E. coli” value was found to be 100 µg/mL (≈ 157 µM). Moreover, the “MBC S. aureus” value in test [4] was 20 (20) μg/ml. In addition, the “MIC MRSE” value with MRSE ATCC 27626 [7] was 10 (10) μg/ml. For the same molecule, the “MIC MRSA” value against MRSA ATCC 33591 [8] is 20 (20) μg/ml. Further, in [5], the “MIC S. aureus” value is 20 (20) μg/ml.

For `N=C(N)NCCC[C@@H](NC(=O)[C@H](N)Cc1c[nH]c2ccccc12)C(=O)N[C@H](Cc1c[nH]c2ccccc12)C(=O)OCc1ccccc1` [wrw OBz] (H-[dW]-[dR]-[dW]-OBn), the “MBC MRSA” value with MRSA ATCC 33591 [1] was 10 µg/mL (≈ 15.7 µM). Besides, the “MBC MRSE” value with MRSE ATCC 27626 [2] is on record as 5 (5) μg/ml. Further, in test [6], the “MIC E. coli” value stood at 75 µg/mL (≈ 118 µM). Besides, the “MBC E. coli” value in test [3] came to 200 µg/mL (≈ 314 µM). In addition, in [4], the “MBC S. aureus” value is 5 (5) μg/ml. Further, the “MIC MRSE” value in the test with MRSE ATCC 27626 [7] is reported as 5 (5) μg/ml. Further, the “MIC MRSA” value against MRSA ATCC 33591 [8] was 5 µg/mL (≈ 7.85 µM). The “MIC S. aureus” value in [5] is recorded as 5 (5) μg/ml.
